Experimental findings from ChEMBL document CHEMBL6087416, “Discovery of novel fused-heterocycle-bearing diarypyrimidine derivatives as HIV-1 potent NNRTIs targeting tolerant region I for enhanced antiviral activity and resistance profile” (Eur J Med Chem, 2025) are described below.

Data set [1] concerns Human immunodeficiency virus 1. The data set is described as follows: Antiviral activity against NNRTI-resistant HIV-1 harboring RT K103N mutant infected in human MT4 cells assessed as protection against virus-induced cytopathic effect incubated for 5 days by MTT assay. Format: functional, organism-based. The settings on record: Human immunodeficiency virus 1, MT4, 120 h. A general note: Damage to the host cells serves as the signal in cytopathic effect assays.

The subject of data set [2] is Human immunodeficiency virus 1. The data set is described as follows: Antiviral activity against NNRTI-resistant HIV-1 harboring RT E138K mutant infected in human MT4 cells assessed as protection against virus-induced cytopathic effect incubated for 5 days by MTT assay. Format: functional, organism-based. The settings on record: Human immunodeficiency virus 1, MT4, 120 h.

The test system of data set [3] is Human immunodeficiency virus 1. Format: functional, organism-based. The note with it: Human immunodeficiency virus 1, MT4, 120 h.
Data set [4] relates to Human immunodeficiency virus 1. The data set is described as follows: Antiviral activity against NNRTI-resistant HIV-1 harboring RT L100I mutant infected in human MT4 cells assessed as protection against virus-induced cytopathic effect incubated for 5 days by MTT assay. Format: functional, organism-based. The settings on record: Human immunodeficiency virus 1, MT4, 120 h.

Data set [5] relates to Human immunodeficiency virus 1. Format: functional, organism-based. The note with it: Human immunodeficiency virus 1, MT4, 120 h. The source holds these as a separate data set.
The test system of data set [6] is Human immunodeficiency virus 1. Format: functional, organism-based. The note with it: Human immunodeficiency virus 1, RES056, MT4, 120 h.
The subject of data set [7] is Human immunodeficiency virus 1. Format: functional, organism-based. The note with it: Human immunodeficiency virus 1, MT4, 120 h. This is another data set of the same source.
Data set [8] can be described thus: Cytotoxicity against human MT4 cells assessed as reduction in cell viability measured after 5 days by MTT assay. Format: toxicity, cell-based. The settings on record: time 5 day.
Data set [9] relates to Human immunodeficiency virus 2. As to the kind of experiment: Antiviral activity against HIV-2 ROD infected in human MT4 cells assessed as protection against virus-induced cytopathic effect incubated for 5 days by MTT assay. Format: functional, organism-based. The note with it: Human immunodeficiency virus 2, ROD, MT4, 120 h.
In data set [10] the test system is Human immunodeficiency virus 1. The data set is described as follows: Potency index, ratio of Zidovudine EC50 to test compound EC50 for antiviral activity against NNRTI-resistant HIV-1 harboring RT K103N mutant infected in human MT4 cells assessed as protection against virus-induced cytopathic effect incubated for 5 days by MTT assay. Format: functional. The note with it: time 5 day.

Data set [11] concerns Human immunodeficiency virus 1. The data set is described as follows: Potency index, ratio of Nevirapine EC50 to test compound EC50 for antiviral activity against NNRTI-resistant HIV-1 harboring RT K103N mutant infected in human MT4 cells assessed as protection against virus-induced cytopathic effect incubated for 5 days by MTT assay. Format: functional. The note with it: time 5 day.

Data set [12] has as its system Human immunodeficiency virus 1. As to the kind of experiment: Potency index, ratio of Efavirenz EC50 to test compound EC50 for antiviral activity against NNRTI-resistant HIV-1 harboring RT K103N mutant infected in human MT4 cells assessed as protection against virus-induced cytopathic effect incubated for 5 days by MTT assay. The settings on record: time 5 day. Format: functional.

Data set [13] concerns Human immunodeficiency virus 1. As to the kind of experiment: Potency index, ratio of doravirine EC50 to test compound EC50 for antiviral activity against NNRTI-resistant HIV-1 harboring RT K103N mutant infected in human MT4 cells assessed as protection against virus-induced cytopathic effect incubated for 5 days by MTT assay. Format: functional. The settings on record: time 5 day.

For data set [14], the target named is Human immunodeficiency virus type 1 reverse transcriptase (Human immunodeficiency virus 1, UniProt Q72547). The data set is described as follows: Inhibition of wild type HIV-1 Reverse transcriptase incubated for 1 hrs by ELISA analysis. A general note: An ELISA detects its analyte on a solid surface through an enzyme-linked reagent.
A short description of data set [15]: in vitro. The settings on record: human, MT4 cells.
Description: Selectivity index, ratio of CC50 for human MT4 cells to EC50 for wild type HIV-1 IIIB infected in human MT4 cells
Data set [16] can be described thus: in vitro. The settings on record: human, MT4 cells. The source holds these as a separate data set.
Description: Selectivity index, ratio of CC50 for human MT4 cells to EC50 for HIV-1 RES056 harboring RT K103N/Y181C mutant infected in human MT4 cells
For data set [17], the system named is Human immunodeficiency virus 1. As to the kind of experiment: microbe, parasite or virus in culture. The settings on record: Human immunodeficiency virus 1, IIIB, MT4, 120 h.
Description: Antiviral activity against wild type HIV-1 IIIB infected in human MT4 cells assessed as protection against virus-induced cytopathic effect incubated for 5 days by MTT assay

Usually EC50 stands for the concentration at which the effect is half-maximal. The CC50 is the concentration giving 50% cytotoxicity. In general, IC50 refers to the concentration at which inhibition is half-maximal. Read a low IC50 as greater potency in that assay. In the case of `Cc1cc(/C=C/C#N)cc(C)c1Oc1ccnc(Nc2ccc3nncn3c2)n1`, the EC50 in data set [1] was 2 nM; in [2] it was 11 nM; in [3] it was 32 nM; in data set [4] it was 9 nM; in data set [5] it was 810 nM; in [6] it was 350 nM. Also, the EC50 came out at 580 nM in data set [7], 6140 nM in data set [9] and 2 nM in [17]. The CC50 at 120 h in data set [8] was 22000 nM. The “Ratio EC50” value in data set [10] is given as 19; in data set [11] it was 2747; in data set [12] it was 50; in data set [13], 5. In data set [14], half-maximal inhibition (IC50) required 25 nM. Also, the results for the selectivity ratio in data set [15] and in data set [16] were 11500 and 182, respectively.
